# Like-named read-outs stand apart in the source and are kept apart here.
# Columns and labels:
# [1] = tested on: Human keratinocytes (HEK, Human Epidermal Keratinocytes); test: Mitochondrial dehydrogenase activity (WST-1 formazan assay) in HEK cells; format: cell-based
# [2] = tested on: HUVEC cells (Human Umbilical Vein Endothelial Cells); test: Mitochondrial dehydrogenase activity (WST-1 formazan assay) in HUVEC cells; format: cell-based; conditions: vascular endothelial cells
# interleukin 1β (IL-1β) = test: Inflammatory cytokines in cell supernatant (Mosaic ELISA microarray): IL-1β; format: cell-based, Human; conditions: 24 hours
# interleukin 6 (IL-6) = test: Inflammatory cytokines in cell supernatant (Mosaic ELISA microarray): IL-6; format: cell-based, Human; conditions: for IL-6 ng/(ml* No. of cells from photo) ± SD: 24 hours; for IL-6 production (effect in words): 1-10 µM
# [3] = Anti-radical activity (decay of the DPPH radical); format: biochemical; conditions: for Anti-radical (skin protective): 24 hours
# How it was run: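 Test substance in ethanol mixed 1:1 with 200 µM DPPH (stock concentrations), in quadruplicate. Absorbance read at 530 nm after 30 min, with vitamin C and ethanol-only controls. IC50 from variable-slope Hill regression of dose-activity curves.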
# HDF cells [4] = test: Summary of uses and toxic effects deduced from the cell assays (Table 1); format: cell-based, Human
# How it was run: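 HDF cells exposed to test substances at a given dosage for 24 h; uses and toxicity inferred from free-radical scavenging, mitochondrial dehydrogenase activity, IL-1β/IL-6 production (basal or induced by 100 µM H2O2), proliferation under standard growth conditions, and senescence-like morphology.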
# [5] = tested on: collagen produced by HDF cells; test: Quantity of collagen produced by the cells (elution of Sirius Red); conditions: 1-10 µM (1 µM and 10 µM)
# [6] = tested on: Human dermal fibroblasts (HDF); test: Mitochondrial dehydrogenase activity (WST-1 formazan assay) in HDF cells; conditions: for Revitalizing agent: 24 hours; for activity at 1 µM / activity at 10 µM: Homo sapiens, Fibroblast, read-out: % mitochondrial dehydrogenase activity ± SD
# HDF cells [7] = test: Evaluation of cell proliferation (counting of Sirius Red stained cells in photographs); conditions: 24 hours
# [8] = Dose 1 µm (coptisine: 1 pm [sic])
# [9] = Dose 1 µm (coptisine: 1 pm [sic]), 24 hours
structure (smiles),measurement,setting,value
COc1ccc2cc3[n+](cc2c1OC)CCc1cc2c(cc1-3)OCO2 [berberine],mitochondrial dehydrogenase activity (effect in words),[1]; higher doses,inhibit mitochondrial dehydrogenase activity
same,mitochondrial dehydrogenase activity (effect in words),[1]; low doses,stimulate mitochondrial dehydrogenase activity
same,mitochondrial dehydrogenase activity (effect in words),[2]; higher doses,inhibit mitochondrial dehydrogenase activity
same,mitochondrial dehydrogenase activity (effect in words),[2]; low doses,stimulate mitochondrial dehydrogenase activity
same,IL-1β ng/(ml* No. of cells from photo) ± SD,"interleukin 1β (IL-1β); 1 µM, 34 ng/ml TGF-β1",138±5 ng/(ml* No. of cells from photo)
same,IL-1β ng/(ml* No. of cells from photo) ± SD,"interleukin 1β (IL-1β); 1 µM, 100 µM H2O2",178±1 ng/(ml* No. of cells from photo)
same,IL-1β ng/(ml* No. of cells from photo) ± SD,"interleukin 1β (IL-1β); 1 µM, Standard conditions",120±6 ng/(ml* No. of cells from photo)
same,IL-1β ng/(ml* No. of cells from photo) ± SD,"interleukin 1β (IL-1β); 10 µM, 34 ng/ml TGF-β1",146±4 ng/(ml* No. of cells from photo)
same,IL-1β ng/(ml* No. of cells from photo) ± SD,"interleukin 1β (IL-1β); 10 µM, 100 µM H2O2",210±16 ng/(ml* No. of cells from photo)
same,IL-1β ng/(ml* No. of cells from photo) ± SD,"interleukin 1β (IL-1β); 10 µM, Standard conditions",94±5 ng/(ml* No. of cells from photo)
same,IL-6 ng/(ml* No. of cells from photo) ± SD,"interleukin 6 (IL-6); 1 µM, 34 ng/ml TGF-β1",657±5 ng/(ml* No. of cells from photo)
same,IL-6 ng/(ml* No. of cells from photo) ± SD,"interleukin 6 (IL-6); 1 µM, 100 µM H2O2",1519±155 ng/(ml* No. of cells from photo)
same,IL-6 ng/(ml* No. of cells from photo) ± SD,"interleukin 6 (IL-6); 1 µM, Standard conditions",843±35 ng/(ml* No. of cells from photo)
same,IL-6 ng/(ml* No. of cells from photo) ± SD,"interleukin 6 (IL-6); 10 µM, 34 ng/ml TGF-β1",603±21 ng/(ml* No. of cells from photo)
same,IL-6 ng/(ml* No. of cells from photo) ± SD,"interleukin 6 (IL-6); 10 µM, 100 µM H2O2",1201±84 ng/(ml* No. of cells from photo)
same,IL-6 ng/(ml* No. of cells from photo) ± SD,"interleukin 6 (IL-6); 10 µM, Standard conditions",618±25 ng/(ml* No. of cells from photo)
same,IL-6 production (effect in words),interleukin 6 (IL-6); 34 ng/ml TGF-β1,tendency to reduce the production of IL-6 in a dose-dependent manner
same,IL-6 production (effect in words),interleukin 6 (IL-6); 100 µM H2O2,tendency to reduce the production of IL-6 in a dose-dependent manner
same,IL-6 production (effect in words),interleukin 6 (IL-6); standard conditions,tendency to reduce the production of IL-6 in a dose-dependent manner
same,% DPPH activity,"[3]; 1 mM, 30 minutes",100%
same,Anti-radical (skin protective),[3]; [8],No
same,Anti-radical (skin protective),[3]; Dose 10 µm,No
same,Cytotoxic,HDF cells [4],No
same,Irritant,HDF cells [4],No
same,"Anti-fibrotic (prevention of scar formation, also from acne)",HDF cells [4]; [9],"Yes (↓collagen, ↓IL-6)"
same,"Cytoprotective (antioxidant, anti-inflammatory and anti-ageing; useful also in the treatment of acne)",HDF cells [4]; [9],Yes* (↓IL-6)
same,Wound-healing,HDF cells [4]; [9],No
same,"Anti-fibrotic (prevention of scar formation, also from acne)","HDF cells [4]; Dose 10 µm, 24 hours","Yes (↓collagen, ↓IL-6)"
same,"Cytoprotective (antioxidant, anti-inflammatory and anti-ageing; useful also in the treatment of acne)","HDF cells [4]; Dose 10 µm, 24 hours",Yes* (↓IL-6)
same,Cytotoxic,"HDF cells [4]; Dose 10 µm, 24 hours",No
same,Irritant,"HDF cells [4]; Dose 10 µm, 24 hours",No
same,Wound-healing,"HDF cells [4]; Dose 10 µm, 24 hours",No
same,concentrations at which no toxic (cytotoxic and irritant) effects are shown,HDF cells [4]; exposure for 24 hours,less than or equal to 10 µM
same,collagen production (effect in words),[5]; 34 ng/ml TGF-β1,antagonizes the stimulation of collagen induced by 34 ng/ml TGF-β1
same,collagen production (effect in words),[5]; 100 µM H2O2,antagonizes the inhibition of collagen production induced by H2O2
same,mitochondrial dehydrogenase activity (effect in words),"[6]; 1 and 10 µM, 18 h and 42 h, more marked at 42 h",increased with respect to the control
same,Revitalizing agent,[6]; [8],Yes
same,Revitalizing agent,[6]; Dose 10 µm,Yes
same,activity at 1 µM,[6]; 18 h,114 ± 2.98%
same,activity at 10 µM,[6]; 18 h,114 ± 10%
same,activity at 1 µM,[6]; 42 h,140 ± 8.89%
same,activity at 10 µM,[6]; 42 h,132 ± 10.2%
same,mitochondrial dehydrogenase activity (effect in words),"[6]; fibroblast cells, higher doses",inhibit mitochondrial dehydrogenase activity
same,mitochondrial dehydrogenase activity (effect in words),"[6]; fibroblast cells, low dosage",stimulate mitochondrial dehydrogenase activity
same,No. of cells from photo ± SD,"HDF cells [7]; 1 µM, 34 ng/ml TGF-β1",181±18
same,No. of cells from photo ± SD,"HDF cells [7]; 1 µM, 100 µM H2O2",129±24
same,No. of cells from photo ± SD,"HDF cells [7]; 1 µM, Standard conditions",203±11
same,No. of cells from photo ± SD,"HDF cells [7]; 10 µM, 34 ng/ml TGF-β1",184±28
same,No. of cells from photo ± SD,"HDF cells [7]; 10 µM, 100 µM H2O2",119±10
same,No. of cells from photo ± SD,"HDF cells [7]; 10 µM, Standard conditions",176±35

# — patent EP2787958B1, “CHELIDONIUM MAJUS EXTRACTS AND THEIR USE IN THE TREATMENT OF SKIN DISORDERS AND PROMOTION OF SKIN REGENERATION” (priority 2011, dated 2013)
